US8822541B2, “Use of targeted nitroxide agents in mitigating or treating radiation injury” (University of Pittsburgh—Of the Commonwealth System of …, priority 2008, dated 2014)
Where a SMILES comes first, the peptide text is derived from it. [ ]: non-standard residue; d: D form. The star is where a group is joined. NH(TEMPO-4-yl) = CC1(C)CC(N*)CC(C)(C)N1[O]; Orn = NCCC[C@H](N)C(=O)O; Cbz = O=C(OCc1ccccc1)*; Boc = CC(C)(C)OC(=O)*; X1 = CC1CCN=C(N*)S1

Legend:
[1] = test system: mitochondria of 32D c13 hemopoietic cells; test: Mass spectrometry of conjugates in isolated mitochondria; type: cell-based, mouse; conditions: 2 h, 100 μM; for Fmole/10 μM mitochondrial protein: mouse; for permeation of the mitochondrial membrane (mass spectrometry): 37° C.
Description: An unconjugated and conjugated NOS antagonist, (AMT, 100 μM) and an unconjugated and conjugated nitroxide derivative (4-amino-TEMPO, 100 μM) were incubated for two hours at 37° C. with 32D c13 hemopoietic cells.
Following incubation, the cells were lysed and the mitochondria isolated for a mass spectrometry analysis where compounds isolated from mitochondria were identified as Na+ adducts. […] Thus, the targeting peptides successfully direct a NOS antagonist and a nitroxide to the mitochondria.
Quantitative mass spectrometry studies were used to compare the effectiveness of several AMT peptide conjugates in permeating the mitochondrial membrane, specifically XJB-5-234, XJB-5-133, XJB-5-241, and XJB-5-127. The Fmole/10 μM mitochondrial protein ratio provides a relative quantification of conjugate concentration at the target site.

[2] = comparison drugs; cited from earlier work
mouse embryonic cells [3] = test: ActD-induced apoptosis in MECs (PS externalization, caspase-3, DNA fragmentation); type: cell-based; parameters: protection against ActD-induced apoptosis: dose or concentration left out as unconfirmed; conditions: for DNA fragmentation / caspase-3 activation / number of annexin V-positive cells (PS externalization): 10 μM, ActD 100 ng/mL; for effect at concentrations in excess of 10 μM: PS externalization
Description: Cells that annexin V-positive and PI-negative were considered apoptotic.

mouse embryonic cells [4] = test: Intracellular superoxide generation (DHE flow cytometry) in ActD-treated MECs; type: cell-based; conditions: 10 μM pretreatment, ActD 100 ng/mL
Description: Determination of intracellular superoxide radicals Oxidation-dependent fluorogenic dye, dihydroethidium (“DHE”, Molecular Probes) was used to evaluate intracellular production of superoxide radicals. DHE is cell permeable and, in the presence of superoxide, is oxidized to fluorescent ethidium which intercalates into DNA. The fluorescence of ethidium was measured using a FACscan (Becton-Dickinson, Rutherford, N.J.) flow cytometer, equipped with a 488-nm argon ion laser and supplied with the Cell Quest software. Mean fluorescence intensity from 10,000 cells were acquired using a 585-nm bandpass filter (FL-2 channel).

mouse embryonic cells [5] = test: EPR-based analysis of integration and reduction of nitroxide Gramicidin S-peptidyl conjugates in MECs; type: cell-based; conditions: 10 μM, MECs and mitochondria isolated from them
Description: Electron paramagnetic resonance (“EPR”) spectroscopy was used to monitor the cellular delivery of compounds 5a and 5b shown in FIG. 3 in mouse embryonic cells (“MEC”).
The following conditions were used during the EPR-based analysis of the integration and reduction of nitroxide Gramicidin S-peptidyl conjugates in MECs. The MECs at a concentration of 10 million MECs per mL were incubated with 10 μM of 4-AT and compound 5a, respectively. Recovered nitroxide radicals in whole cells, mitochondria, and cytosol fractions were resuspended in phosphate buffer saline (“PBS”) in the presence and absence, respectively, of 2 μM K3Fe(CN)6.

[6] = test system: irradiated uroepithelial cells; test: NO and peroxynitrite production in irradiated uroepithelial cells (microsensor); type: cell-based; conditions: AMT 10 μM, 4-amino-TEMPO 100 μM; 24 h after irradiation
Description: Further physiological studies were conducted to determine the effects of peptide-targeted AMT and 4-amino-TEMPO on NO and peroxynitrite production in irradiated uroepithelial cells. The cells were cultured in an 8-well slide chamber for 3 days and then microsensor measurements were taken 24 hours after irradiation.
In cells treated with high-dose conjugated 4-amin-TEMPO (100 μM), peroxynitrite production was decreased by approximately 4-fold.

[7] = test system: 32D cl 3 murine hematopoietic cells; test: Gamma-irradiation dose survival curves of 32D cl 3 cells (XJB-5-125, Tempol); type: cell-based, mouse
Description: FIG. 16 illustrates the effect of GS conjugated nitroxide, XJB-5-125, on gamma-irradiation dose survival curves of 32D cl 3 murine hematopoietic cells.

C/C(=C\[C@H](Cc1ccccc1)C(=O)N1CCC[C@H]1C(=O)N[C@H](C(=O)N[C@@H](CCCNC(=O)OCc1ccccc1)C(=O)NC1=NCCC(C)S1)C(C)C)[C@H](CC(C)C)NC(=O)OC(C)(C)C (stereo partly drawn) [XJB-5-241, Boc-Leu-ψ[(E)-C(CH3)═CH]^DPhe-Pro-Val-Orn(Cbz)-AMT]
Fmole/10 μM mitochondrial protein [1]: 103.3 Fmole/10 μM mitochondrial protein

Clc1ccccc1C(c1ccccc1)(c1ccccc1)n1ccnc1 [clotrimazole]
log Ko/w [2]: 6.27

CC(=O)N1CCN(c2ccc(OCC3COC(Cn4ccnc4)(c4ccc(Cl)cc4Cl)O3)cc2)CC1 (stereo not drawn) [ketaconazole]
log Ko/w [2]: 4.34

COc1ccc2c(c1)c(CC(=O)O)c(C)n2C(=O)c1ccc(Cl)cc1 [Indomethecin]
log Ko/w [2]: 4.23

CC(C)C[C@H](NC(=O)OC(C)(C)C)C(=O)N[C@H](Cc1ccccc1)C(=O)N1CCC[C@H]1C(=O)N[C@H](C(=O)N[C@@H](CCCNC(=O)OCc1ccccc1)C(=O)NC1CC(C)(C)N([O])C(C)(C)C1)C(C)C [Compound 5b] (Boc-L[dF]PV[Orn](Cbz)-{NH(TEMPO-4-yl)})
DNA fragmentation (mouse embryonic cells [3]): prevented DNA fragmentation | caspase-3 activation (mouse embryonic cells [3]): prevented caspase-3 activation | number of annexin V-positive cells (PS externalization) (mouse embryonic cells [3]): reduced the number of annexin V-positive cells | effect at concentrations in excess of 10 μM (mouse embryonic cells [3]): either less protective or exhibited cytotoxicity | intracellular superoxide generation (mouse embryonic cells [4]): completely inhibited

CC(C)C[C@@H](/C=C/[C@H](Cc1ccccc1)C(=O)NC1=NCCC(C)S1)NC(=O)OC(C)(C)C (stereo partly drawn) [XJB-5-234, Boc-Leu-ψ[(E)-CH═CH]-^DPhe-AMT]
Fmole/10 μM mitochondrial protein [1]: 1.45 Fmole/10 μM mitochondrial protein

CC1(C)CC(N)CC(C)(C)N1[O] [4-amino-TEMPO, reference compound]
protection against ActD-induced apoptosis (mouse embryonic cells [3]; low concentrations): afforded no protection | permeation of the mitochondrial membrane (mass spectrometry) [1]: only permeate the mitochondrial membrane with the assistance of the attached GS-derived targeting sequence | integration into cells and mitochondria (EPR signals of nitroxide radicals) (mouse embryonic cells [5]): did not effectively permeate cells or the mitochondria | NO induced peroxynitrite formation [6]: comparable amount of peroxynitrite | intracellular superoxide generation (mouse embryonic cells [4]): no effect

CC(C)C[C@@H](/C=C/[C@H](Cc1ccccc1)C(=O)N1CCC[C@H]1C(=O)N[C@H](C(=O)N[C@@H](CCCNC(=O)OCc1ccccc1)C(=O)NC1=NCCC(C)S1)C(C)C)NC(=O)OC(C)(C)C (stereo partly drawn) [XJB-5-133, Boc-Leu-ψ[(E)-CH═CH]-^DPhe-Pro-Val-Orn(Cbz)-AMT]
Fmole/10 μM mitochondrial protein [1]: 89.8 Fmole/10 μM mitochondrial protein

CC(C)C[C@@H](/C=C/[C@H](Cc1ccccc1)C(=O)N1CCC[C@H]1C(=O)N[C@H](C(=O)N[C@@H](CCCNC(=O)OCc1ccccc1)C(=O)NC1CC(C)(C)N([O])C(C)(C)C1)C(C)C)NC(=O)OC(C)(C)C [Compound 5a]
DNA fragmentation (mouse embryonic cells [3]): prevented DNA fragmentation | caspase-3 activation (mouse embryonic cells [3]): prevented caspase-3 activation | number of annexin V-positive cells (PS externalization) (mouse embryonic cells [3]): reduced the number of annexin V-positive cells | effect at concentrations in excess of 10 μM (mouse embryonic cells [3]): either less protective or exhibited cytotoxicity | integration into cells and mitochondria (EPR signals of nitroxide radicals) (mouse embryonic cells [5]): triplet signals of nitroxide radicals were detected | intracellular superoxide generation (mouse embryonic cells [4]): completely inhibited

CC1(C)CC(O)CC(C)(C)N1[O] [TEMPOL, 4-hydroxy-2,2,6,6-tetramethylpiperidine-N-oxyl]
n (shoulder on the survival curve) [7]: 5.82 | Do ([7]; vs 0.797 Gy for 32D cl 3 cells alone): 1.209 Gy

CC1CCN=C(N)S1 (stereo not drawn) [unconjugated AMT, 2-amino-6-methyl-thiazine, reference compound]
permeation of the mitochondrial membrane (mass spectrometry) [1]: do not enter the mitochondria membrane in substantial quantities | NO induced peroxynitrite formation [6]: comparable amount of peroxynitrite

CC(C)C[C@H](NC(=O)OC(C)(C)C)C(=O)N[C@H](Cc1ccccc1)C(=O)N1CCC[C@H]1C(=O)N[C@H](C(=O)N[C@@H](CCCNC(=O)OCc1ccccc1)C(=O)NC1=NCCC(C)S1)C(C)C (stereo partly drawn) [XJB-5-127, Boc-Leu-^DPhe-Pro-Val-Orn(Cbz)-AMT] (Boc-L[dF]PV[Orn](Cbz)-X1)
Fmole/10 μM mitochondrial protein [1]: 50.8 Fmole/10 μM mitochondrial protein
